Assay results as given in ChEMBL document CHEMBL5465560, “Selectivity Literature for EUbOPEN Chemogenomic Library” (2024).

Tests used:
[1] = target: T1, Testis-specific serine/threonine-protein kinase 3 (Homo sapiens) (UniProt Q96PN8); test: Selectivity interaction (KinomeScan (DiscoverX)) EUB0000695a TSSK3; conditions: at 100 nM
T1 sequence (whole entry): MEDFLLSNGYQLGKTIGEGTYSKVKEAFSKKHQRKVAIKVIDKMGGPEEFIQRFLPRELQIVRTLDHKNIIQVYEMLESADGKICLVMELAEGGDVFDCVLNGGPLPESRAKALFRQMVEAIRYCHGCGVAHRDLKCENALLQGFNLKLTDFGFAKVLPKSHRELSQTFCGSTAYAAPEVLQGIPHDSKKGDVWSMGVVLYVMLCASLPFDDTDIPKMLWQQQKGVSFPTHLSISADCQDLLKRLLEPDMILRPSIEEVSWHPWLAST

[2] = test system: Tyrosine-protein kinase ABL1 (Homo sapiens), P00519 [H396P]; test: (§1) Selectivity interaction (KinomeScan (DiscoverX)) EUB0001079a ABL1; conditions: at 1 µM
[3] = test system: Tyrosine-protein kinase ABL1 (Homo sapiens), P00519 [Y253F]; test: as §1; conditions: at 1 µM
[4] = target: Tyrosine-protein kinase ABL1 (Homo sapiens, UniProt P00519); test: as §1; conditions: at 1 µM
[5] = target: T2, Hormonally up-regulated neu tumor-associated kinase (Homo sapiens) (UniProt P57058); test: Selectivity interaction (KinomeScan (DiscoverX)) EUB0000666a HUNK; conditions: at 10 µM
T2 sequence (whole entry): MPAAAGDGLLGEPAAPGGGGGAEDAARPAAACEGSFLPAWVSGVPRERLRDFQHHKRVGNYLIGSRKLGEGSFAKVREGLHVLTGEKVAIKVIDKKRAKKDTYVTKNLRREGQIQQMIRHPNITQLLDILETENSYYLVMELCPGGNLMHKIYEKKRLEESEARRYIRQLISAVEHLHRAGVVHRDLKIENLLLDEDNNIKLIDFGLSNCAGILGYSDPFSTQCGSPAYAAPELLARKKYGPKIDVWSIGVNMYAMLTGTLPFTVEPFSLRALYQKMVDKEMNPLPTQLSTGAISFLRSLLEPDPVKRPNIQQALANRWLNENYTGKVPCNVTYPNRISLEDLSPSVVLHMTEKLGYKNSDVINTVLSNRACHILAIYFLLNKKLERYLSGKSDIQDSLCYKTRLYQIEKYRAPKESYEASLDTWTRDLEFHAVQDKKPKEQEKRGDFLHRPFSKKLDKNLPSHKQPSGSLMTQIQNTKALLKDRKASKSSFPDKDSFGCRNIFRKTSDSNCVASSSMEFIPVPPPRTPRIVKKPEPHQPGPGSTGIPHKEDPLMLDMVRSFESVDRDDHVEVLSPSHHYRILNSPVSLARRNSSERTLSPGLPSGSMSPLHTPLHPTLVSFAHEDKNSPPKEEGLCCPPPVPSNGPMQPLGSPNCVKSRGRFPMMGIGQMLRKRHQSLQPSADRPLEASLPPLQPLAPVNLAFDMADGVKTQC

[6] = target: Protein arginine N-methyltransferase 3 (Homo sapiens, UniProt O60678); test: Selectivity interaction (Methyltransferase screen (radiometric assays, panel of 8 PRMTs, 21 protein lysine methyltransferases, 3 DNA methyltransferases, and one RNA methyltransferase)) EUB0000271b PRMT3
Chain of Protein arginine N-methyltransferase 3 (O60678 2-531 limits assumed): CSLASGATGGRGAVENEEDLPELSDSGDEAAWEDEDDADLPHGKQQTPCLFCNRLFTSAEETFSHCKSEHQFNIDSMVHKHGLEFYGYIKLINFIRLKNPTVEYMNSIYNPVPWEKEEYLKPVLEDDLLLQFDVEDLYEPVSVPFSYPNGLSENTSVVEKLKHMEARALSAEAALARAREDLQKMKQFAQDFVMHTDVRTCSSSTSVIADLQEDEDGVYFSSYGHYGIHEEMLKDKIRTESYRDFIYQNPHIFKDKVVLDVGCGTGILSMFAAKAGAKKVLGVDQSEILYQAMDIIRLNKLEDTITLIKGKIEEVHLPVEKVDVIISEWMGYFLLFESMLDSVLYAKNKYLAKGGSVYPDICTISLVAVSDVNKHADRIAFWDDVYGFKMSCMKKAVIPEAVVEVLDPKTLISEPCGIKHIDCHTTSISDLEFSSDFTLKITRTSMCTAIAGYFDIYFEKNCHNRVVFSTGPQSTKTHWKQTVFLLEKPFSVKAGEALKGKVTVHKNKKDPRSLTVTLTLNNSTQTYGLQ

[7] = target: T3, Serine/threonine-protein kinase haspin (Homo sapiens) (UniProt Q8TF76); test: Selectivity interaction (KinomeScan (DiscoverX)) EUB0001049a GSG2; conditions: at 1 µM
T3 sequence (whole entry): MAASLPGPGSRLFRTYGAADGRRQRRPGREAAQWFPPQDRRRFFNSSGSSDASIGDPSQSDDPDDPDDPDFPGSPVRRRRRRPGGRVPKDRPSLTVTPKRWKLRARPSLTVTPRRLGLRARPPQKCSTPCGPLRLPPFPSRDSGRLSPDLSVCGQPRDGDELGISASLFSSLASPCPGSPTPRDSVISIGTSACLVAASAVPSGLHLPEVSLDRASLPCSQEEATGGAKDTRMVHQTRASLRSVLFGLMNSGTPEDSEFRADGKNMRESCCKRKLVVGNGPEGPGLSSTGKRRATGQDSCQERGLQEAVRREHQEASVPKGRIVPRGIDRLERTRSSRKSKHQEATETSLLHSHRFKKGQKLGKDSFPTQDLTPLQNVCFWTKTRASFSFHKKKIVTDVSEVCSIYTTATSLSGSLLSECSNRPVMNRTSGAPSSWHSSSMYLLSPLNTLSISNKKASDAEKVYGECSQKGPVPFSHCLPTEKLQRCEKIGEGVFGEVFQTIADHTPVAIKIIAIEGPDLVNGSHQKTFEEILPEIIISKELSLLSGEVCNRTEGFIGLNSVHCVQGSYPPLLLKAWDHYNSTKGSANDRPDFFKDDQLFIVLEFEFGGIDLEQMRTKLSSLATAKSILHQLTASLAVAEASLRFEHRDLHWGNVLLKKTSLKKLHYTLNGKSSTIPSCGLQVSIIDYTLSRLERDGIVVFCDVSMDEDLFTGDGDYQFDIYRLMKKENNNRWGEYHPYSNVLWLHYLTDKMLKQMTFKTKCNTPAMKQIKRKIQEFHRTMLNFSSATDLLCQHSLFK

[8] = target: Tyrosine-protein kinase Yes (Homo sapiens) (UniProt P07947); test: Selectivity interaction (Upstate Kinase Profiler service (Millipore)) EUB0000056c YES1; conditions: at 1 µM
Chain of Tyrosine-protein kinase Yes (Homo sapiens) (P07947 2-543 limits assumed): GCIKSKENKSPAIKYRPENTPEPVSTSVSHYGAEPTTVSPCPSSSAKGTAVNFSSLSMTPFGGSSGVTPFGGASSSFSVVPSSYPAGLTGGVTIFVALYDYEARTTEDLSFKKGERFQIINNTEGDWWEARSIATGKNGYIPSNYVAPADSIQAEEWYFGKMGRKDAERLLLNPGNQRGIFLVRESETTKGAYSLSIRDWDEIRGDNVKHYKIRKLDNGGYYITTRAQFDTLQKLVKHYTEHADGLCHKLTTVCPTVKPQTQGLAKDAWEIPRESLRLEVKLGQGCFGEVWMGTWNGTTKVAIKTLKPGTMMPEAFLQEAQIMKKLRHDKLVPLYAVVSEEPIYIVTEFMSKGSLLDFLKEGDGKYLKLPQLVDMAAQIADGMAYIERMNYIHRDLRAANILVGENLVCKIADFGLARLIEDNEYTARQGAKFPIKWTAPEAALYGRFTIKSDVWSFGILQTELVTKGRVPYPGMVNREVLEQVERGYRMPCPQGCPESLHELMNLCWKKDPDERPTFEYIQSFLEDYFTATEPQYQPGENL

[9] = target: Tyrosine-protein kinase SYK (Homo sapiens, UniProt P43405); test: Selectivity interaction (ActivX KiNativ screen (ex vivo kinase selectivity in human PBMCs)) EUB0001619a SYK; type: cell-based; conditions: PBMC, at 1 µM
[10] = target: Tyrosine-protein kinase Fes/Fps (Homo sapiens) (UniProt P07332); test: Selectivity interaction (Kinase panel (Invitrogen)) EUB0000639a FES; conditions: at 200 nM
Chain of Tyrosine-protein kinase Fes/Fps (Homo sapiens) (P07332 whole entry): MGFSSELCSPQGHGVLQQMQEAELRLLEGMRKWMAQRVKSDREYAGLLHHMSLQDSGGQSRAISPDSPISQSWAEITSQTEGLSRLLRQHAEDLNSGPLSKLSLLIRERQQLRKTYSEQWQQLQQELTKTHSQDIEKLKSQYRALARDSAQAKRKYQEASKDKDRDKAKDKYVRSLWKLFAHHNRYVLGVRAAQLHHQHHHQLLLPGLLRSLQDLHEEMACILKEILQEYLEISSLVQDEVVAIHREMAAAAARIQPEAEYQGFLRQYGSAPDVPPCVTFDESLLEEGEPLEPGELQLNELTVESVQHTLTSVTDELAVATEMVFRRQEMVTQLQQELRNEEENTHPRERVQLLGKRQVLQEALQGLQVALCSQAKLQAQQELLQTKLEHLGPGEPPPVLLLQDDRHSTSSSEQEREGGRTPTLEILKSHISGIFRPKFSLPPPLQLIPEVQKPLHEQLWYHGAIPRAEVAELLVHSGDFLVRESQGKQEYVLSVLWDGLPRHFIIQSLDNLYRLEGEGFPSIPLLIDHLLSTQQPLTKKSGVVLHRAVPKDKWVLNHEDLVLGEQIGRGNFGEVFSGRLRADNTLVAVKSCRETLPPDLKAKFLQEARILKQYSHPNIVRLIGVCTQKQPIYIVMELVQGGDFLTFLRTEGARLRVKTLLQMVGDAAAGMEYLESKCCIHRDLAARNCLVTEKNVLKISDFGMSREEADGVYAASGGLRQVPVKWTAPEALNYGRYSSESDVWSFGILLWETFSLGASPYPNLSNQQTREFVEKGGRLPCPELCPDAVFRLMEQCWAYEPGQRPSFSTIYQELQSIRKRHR

[11] = target: Ribosomal protein S6 kinase alpha-2 (Homo sapiens) (UniProt Q15349); conditions: at 10 µM
Chain of Ribosomal protein S6 kinase alpha-2 (Homo sapiens) (Q15349 whole entry): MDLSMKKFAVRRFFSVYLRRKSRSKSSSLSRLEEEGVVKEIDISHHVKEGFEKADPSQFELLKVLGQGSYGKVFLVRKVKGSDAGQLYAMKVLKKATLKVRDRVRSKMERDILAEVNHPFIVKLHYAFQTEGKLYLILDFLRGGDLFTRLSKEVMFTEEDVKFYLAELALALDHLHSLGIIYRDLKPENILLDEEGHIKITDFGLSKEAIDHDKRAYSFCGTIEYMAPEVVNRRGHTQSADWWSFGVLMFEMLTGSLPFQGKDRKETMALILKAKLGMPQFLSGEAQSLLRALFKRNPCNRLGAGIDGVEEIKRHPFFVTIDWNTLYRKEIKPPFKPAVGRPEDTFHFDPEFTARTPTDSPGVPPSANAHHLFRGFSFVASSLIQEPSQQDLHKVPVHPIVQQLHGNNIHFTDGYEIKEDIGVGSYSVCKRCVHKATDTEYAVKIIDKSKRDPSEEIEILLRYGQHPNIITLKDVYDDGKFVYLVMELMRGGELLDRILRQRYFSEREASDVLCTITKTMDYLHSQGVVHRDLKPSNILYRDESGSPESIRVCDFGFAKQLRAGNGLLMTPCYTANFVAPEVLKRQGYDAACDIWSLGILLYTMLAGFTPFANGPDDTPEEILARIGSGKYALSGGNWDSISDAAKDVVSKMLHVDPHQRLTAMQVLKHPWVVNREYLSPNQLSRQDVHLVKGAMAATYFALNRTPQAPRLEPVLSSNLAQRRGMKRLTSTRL

Compound: Cc1cc(F)c(C(=O)Nc2cccc(-c3nncn3C(C)C)n2)cc1-n1cnc(C2CC2)c1
- % of control [1]: 57%

Compound: Nc1cnc(N2CCc3cc(S(=O)(=O)Nc4c(F)cc(Cl)cc4F)cc(N4CCCC4=O)c32)nc1 [TP-020n]
- % of control [2]: 94%
- % of control [3]: 94%
- % of control [4]: 100%

Compound: O=C(NOC[C@H](O)CO)c1ccc(F)c(F)c1Nc1ccc(I)cc1F
- % of control [5]: 100%

Compound: Cc1cc(C)cc([C@@H]2c3cc(C)ccc3NC(=O)CN2C(=O)c2ccc(Br)s2)c1
- % of activity ([6]; at 1 µM): 100%
- % of activity ([6]; at 10 µM): 98%

Compound: COc1cc(Nc2nc(C)cc(-c3cnn4nc(OC)ccc34)n2)cc(C(F)(F)F)c1
- % of control [7]: 100%

Compound: Cc1ccc(-c2ccc3c(ccc4sc5c(c43)NC[C@@H](C)NC5=O)n2)cn1
- % of inhibition [8]: 31%

Compound: N#Cc1cccc(-c2c[nH]c3ncnc(N4CCOCC4)c23)c1
- % of inhibition [9]: 0%

Compound: CC[C@@H]1[C@H](F)C(=O)N[C@@H]1COc1nccc2cc(C(N)=O)c(OC)cc12 [ZIMLOVISERTIB]
- % of inhibition [10]: 1.51%

Compound: CCN(CC)CCCCNc1ncc2cc(-c3cc(OC)cc(OC)c3)c(NC(=O)NC(C)(C)C)nc2n1
- % of control [11]: 100%
